Test results reported in publication PMC6001238, “Iterative Chemical Engineering of Vancomycin Leads to Novel Vancomycin Analogs With a High in Vitro Therapeutic Index” (Frontiers in Microbiology, 2018).
≈ marks a conversion by molar mass, not a printed value.

Key:
E. faecalis VRE 53 = assay: MIC, broth microdilution, vancomycin-resistant E. faecalis VRE 53 (VanA); format: cell-based, Enterococcus faecalis; conditions: for MIC: Enterococcus faecalis VRE 53 (vancomycin-resistant), read-out: MIC; for MIC-fold improvement vs. vancomycin: VRE 53, ratio of MIC of vancomycin and MIC of analogue
In short: (§1)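 Read-out: lowest concentration inhibiting growth in broth microdilution, CLSI method. Water and broth-only wells acted as controls; in one case 10 μM vancomycin (final) was present with the compound.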

[1] = system: Clostridium difficile AIU ribotype 027; assay: MIC, plate drop assay, C. difficile AIU ribotype 027; format: cell-based; conditions: C. difficile AIU ribotype 027
Experimental: (§2) Bacterial lawns of both C. difficile strains were prepared by adding 0.5 mL overnight culture to 8 mL sloppy BHI agar (0.4% agar) supplemented with 1.5 g/L CaCl2⋅2H2O and 81.2 g/L MgCl2⋅6H2O, and pouring the mixture into Petri plates. A twofold dilution series of the selected vancomycin analogs, vancomycin ([…]) and daptomycin (25 μM) was spotted (10 μL) on the bacterial lawn. Spots were air-dried and the plates were incubated overnight at 37°C in an anaerobic cabinet. Ultrapure water was included as negative control. The assay was performed in triplicate. Inhibition was observed by cleared spots.

S. aureus VRSA = assay: MIC, broth microdilution, vancomycin-resistant S. aureus (VRSA); format: cell-based, Staphylococcus aureus; conditions: for MIC: Staphylococcus aureus VRSA, read-out: MIC; for MIC-fold improvement vs. vancomycin: VRSA, ratio of MIC of vancomycin and MIC of analogue
In short: as §1

[2] = system: S. aureus VSSA (ATCC 6538); assay: MIC, broth microdilution, vancomycin-sensitive S. aureus (VSSA/MSSA, ATCC 6538); format: cell-based, Staphylococcus aureus; conditions: for MIC: Staphylococcus aureus VSSA, read-out: MIC; for MIC-fold improvement vs. vancomycin: VSSA, ratio of MIC of vancomycin and MIC of analogue
In short: as §1

[3] = system: Clostridium difficile ATJ ribotype 014/20; assay: MIC, plate drop assay, C. difficile ATJ ribotype 014/20; format: cell-based; conditions: C. difficile ATJ ribotype 014/20
Experimental: as §2

E. faecalis VRE 29 = assay: MIC, broth microdilution, vancomycin-resistant E. faecalis VRE 29 (VanA); format: cell-based, Enterococcus faecalis; conditions: for MIC: Enterococcus faecalis VRE 29 (vancomycin-resistant), read-out: MIC; for MIC-fold improvement vs. vancomycin: VRE 29, ratio of MIC of vancomycin and MIC of analogue
In short: as §1

S. aureus VISA/HIP5827 = assay: MIC, broth microdilution, vancomycin-intermediate S. aureus VISA HIP5827; format: cell-based, Staphylococcus aureus; conditions: for MIC: Staphylococcus aureus VISA/HIP5827, read-out: MIC; for MIC-fold improvement vs. vancomycin: VISA/HIP5827, ratio of MIC of vancomycin and MIC of analogue
In short: as §1

E. faecalis VSE 1 = assay: MIC, broth microdilution, vancomycin-sensitive E. faecalis (VSE 1); format: cell-based, Enterococcus faecalis; conditions: for MIC: Enterococcus faecalis VSE 1 (vancomycin-sensitive), read-out: MIC; for MIC-fold improvement vs. vancomycin: VSE 1, ratio of MIC of vancomycin and MIC of analogue
In short: as §1

E. faecalis VRE 37 = assay: MIC, broth microdilution, vancomycin-resistant E. faecalis VRE 37 (VanA); format: cell-based, Enterococcus faecalis; conditions: for MIC: Enterococcus faecalis VRE 37 (vancomycin-resistant), read-out: MIC
In short: as §1

[4] = system: L1210, CEM and HeLa cell lines; assay: Cytostatic activity, average or summary over L1210, CEM and HeLa; format: cell-based; conditions: average of L1210, CEM and HeLa; read-out: Toxicity (IC50) Average
In short: (§3)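 Coulter counter cell counts after 37°C culture with compound; IC50 = concentration giving 50% growth inhibition vs negative control. Incubation: L1210 2 d, CEM 3 d, HeLa 4 d. Suspension density before mixing with an equal volume of dilution: 300,000–500,000 cells/mL.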

MRSA KS6 = assay: MIC, broth microdilution, MRSA KS6; format: cell-based, Staphylococcus aureus; conditions: for MIC-fold improvement vs. vancomycin: MRSA KS6, ratio of MIC of vancomycin and MIC of analogue; for MIC: Staphylococcus aureus MRSA KS6, read-out: MIC
In short: as §1

MRSA KS1 = assay: MIC, broth microdilution, MRSA KS1; format: cell-based, Staphylococcus aureus; conditions: for MIC-fold improvement vs. vancomycin: MRSA KS1, ratio of MIC of vancomycin and MIC of analogue; for MIC: Staphylococcus aureus MRSA KS1, read-out: MIC
In short: as §1

[5] = system: human cervix carcinoma (HeLa) cells; assay: Cytostatic activity, HeLa cell proliferation; format: cell-based; conditions: mean ± SD of three experiments; highest concentration tested 250 µM; 4 days; read-out: Toxicity (IC50) HeLa
In short: as §3

[6] = system: human T-lymphocyte (CEM) cells; assay: Cytostatic activity, CEM cell proliferation; format: cell-based; conditions: mean ± SD of three experiments; highest concentration tested 250 µM; 3 days; read-out: Toxicity (IC50) CEM
In short: as §3

MRSA KS89 = assay: MIC, broth microdilution, MRSA KS89; format: cell-based, Staphylococcus aureus; conditions: for MIC-fold improvement vs. vancomycin: MRSA KS8, ratio of MIC of vancomycin and MIC of analogue; for MIC: Staphylococcus aureus MRSA KS8, read-out: MIC
In short: as §1

[7] = system: Murine leukemia (L1210) cells; assay: Cytostatic activity, L1210 cell proliferation; format: cell-based; conditions: mean ± SD of three experiments; highest concentration tested 250 µM; 2 days; read-out: Toxicity (IC50) L1210
In short: as §3

MRSA KS2 = assay: MIC, broth microdilution, MRSA KS2; format: cell-based, Staphylococcus aureus; conditions: for MIC-fold improvement vs. vancomycin: MRSA KS2, ratio of MIC of vancomycin and MIC of analogue; for MIC: Staphylococcus aureus MRSA KS2, read-out: MIC
In short: as §1

E. faecalis VRE 6 = assay: MIC, broth microdilution, vancomycin-resistant E. faecalis VRE 6 (VanA); format: cell-based, Enterococcus faecalis; conditions: for MIC: Enterococcus faecalis VRE 6 (vancomycin-resistant), read-out: MIC; for MIC-fold improvement vs. vancomycin: VRE 6, ratio of MIC of vancomycin and MIC of analogue
In short: as §1

| SMILES | MIC (E. faecalis VRE 53) [µM] | MIC-fold improvement vs. vancomycin (E. faecalis VRE 53) | MIC-fold improvement vs. vancomycin [1] | MIC (S. aureus VRSA) [µM] | MIC-fold improvement vs. vancomycin (S. aureus VRSA) | MIC [2] [µM] | MIC-fold improvement vs. vancomycin [2] | MIC-fold improvement vs. vancomycin [3] | MIC (E. faecalis VRE 29) [µM] | MIC-fold improvement vs. vancomycin (E. faecalis VRE 29) | MIC (S. aureus VISA/HIP5827) [µM] | MIC-fold improvement vs. vancomycin (S. aureus VISA/HIP5827) | MIC (E. faecalis VSE 1) [µM] | MIC-fold improvement vs. vancomycin (E. faecalis VSE 1) | MIC (E. faecalis VRE 37) [µM] | IC50 [4] [µM] | MIC-fold improvement vs. vancomycin (MRSA KS6) | MIC (MRSA KS6) [µM] | MIC-fold improvement vs. vancomycin (MRSA KS1) | MIC (MRSA KS1) [µM] | further results |
| --- | --- | --- | --- | --- | --- | --- | --- | --- | --- | --- | --- | --- | --- | --- | --- | --- | --- | --- | --- | --- | --- |
| CN[C@H](CC(C)C)C(=O)N[C@H]1C(=O)N[C@@H](CC(N)=O)C(=O)N[C@H]2C(=O)N[C@H]3C(=O)N[C@H](C(=O)N[C@H](C(=O)NCC(=O)Nc4ccc(Nc5ccccc5)cc4)c4cc(O)cc(O)c4-c4cc3ccc4O)[C@H](O)c3ccc(c(Cl)c3)Oc3cc2cc(c3O[C@@H]2O[C@H](CO)[C@@H](O)[C@H](O)[C@H]2O[C@H]2C[C@](C)(N)[C@H](O)[C@H](C)O2)Oc2ccc(cc2Cl)[C@H]1O [Vanc-43] | 25 (≈ 41.8 µg/mL) | 16 | 29 | 1.56 (≈ 2.61 µg/mL) | 64 | 0.39 (≈ 0.652 µg/mL) | 2 | 22 | 6.25 (≈ 10.5 µg/mL) | 64 | 1.56 (≈ 2.61 µg/mL) | 4 | 0.39 (≈ 0.652 µg/mL) | 4 | 6.25 (≈ 10.5 µg/mL) | > 250 | 0.25 | 3.13 (≈ 5.24 µg/mL) | 2 | 0.39 (≈ 0.652 µg/mL) | MIC-fold improvement vs. vancomycin (E. faecalis VRE 37; VRE 37, ratio of MIC of vancomycin and MIC of analogue): 64; IC50 [5]: > 250 µM; IC50 [6]: > 250 µM; MIC-fold improvement vs. vancomycin (MRSA KS89): 2; MIC (MRSA KS89): 0.39 µM (≈ 0.652 µg/mL); IC50 [7]: > 250 µM; MIC-fold improvement vs. vancomycin (MRSA KS2): 2; MIC (MRSA KS2): 0.39 µM (≈ 0.652 µg/mL); MIC (E. faecalis VRE 6): 1.56 µM (≈ 2.61 µg/mL); MIC-fold improvement vs. vancomycin (E. faecalis VRE 6): 128 |
| CNC(CC(C)C)C(=O)NC1C(=O)NC(CC(N)=O)C(=O)NC2C(=O)NC3C(=O)NC(C(=O)NC(C(=O)NCCCNC(=O)c4cc5ccccc5o4)c4cc(O)cc(O)c4-c4cc3ccc4O)C(O)c3ccc(c(Cl)c3)Oc3cc2cc(c3OC2OC(CO)C(O)C(O)C2OC2CC(C)(N)C(O)C(C)O2)Oc2ccc(cc2Cl)C1O (centres unmarked) [Vanc-25] | 25 (≈ 41.2 µg/mL) | 16 | 4 | 3.13 (≈ 5.16 µg/mL) | 32 | 0.39 (≈ 0.643 µg/mL) | 2 | 5.6 | 6.25 (≈ 10.3 µg/mL) | 64 | 0.39 (≈ 0.643 µg/mL) | 16 | 0.39 (≈ 0.643 µg/mL) | 4 | 12.5 (≈ 20.6 µg/mL) | 199 | 2 | 0.39 (≈ 0.643 µg/mL) | 2 | 0.39 (≈ 0.643 µg/mL) | IC50 [5]: 98 ± 32 µM; IC50 [6]: > 250 µM; MIC-fold improvement vs. vancomycin (MRSA KS89): 2; MIC (MRSA KS89): 0.39 µM (≈ 0.643 µg/mL); IC50 [7]: > 250 µM; MIC-fold improvement vs. vancomycin (MRSA KS2): 2; MIC (MRSA KS2): 0.39 µM (≈ 0.643 µg/mL); MIC (E. faecalis VRE 6): 0.78 µM (≈ 1.29 µg/mL); MIC-fold improvement vs. vancomycin (E. faecalis VRE 6): 256 |
